Entries after “also recorded” stand apart in the source; their conditions may differ. One block for each compound: values may come before it. Where no end group is shown, it is not given here.
Key:
[1] = rat, serum
PAC1 [2] = molecular target: T1, PAC1 (Homo sapiens, UniProt P41586); settings: previously reported; cited from earlier work
T1 sequence (P41586 21-468): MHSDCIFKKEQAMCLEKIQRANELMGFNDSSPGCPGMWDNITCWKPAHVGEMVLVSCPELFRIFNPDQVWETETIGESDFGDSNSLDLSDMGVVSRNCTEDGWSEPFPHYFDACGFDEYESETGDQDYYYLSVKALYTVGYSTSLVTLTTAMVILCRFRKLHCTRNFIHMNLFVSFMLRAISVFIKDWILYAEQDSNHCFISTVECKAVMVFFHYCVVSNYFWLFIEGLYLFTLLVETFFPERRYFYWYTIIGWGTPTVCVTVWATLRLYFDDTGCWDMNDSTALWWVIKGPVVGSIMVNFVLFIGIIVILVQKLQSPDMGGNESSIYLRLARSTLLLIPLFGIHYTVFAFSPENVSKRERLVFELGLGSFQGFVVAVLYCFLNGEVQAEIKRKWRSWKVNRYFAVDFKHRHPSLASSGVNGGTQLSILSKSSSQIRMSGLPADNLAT

PAC1 [3] = molecular target: T1, PAC1; assay: PAC1-CHO calcium flux, FLIPR antagonist mode versus PACAP1-27; assay type: cell-based; design: host or cells: CHO (clonal line PAC1-CHO)
Method: The construct was electroporated into Chinese Hamster Ovary (CHO) cells, and selected for with 500 μg/mL of G418. The resulting population was screened for high expressing clones, and one such clone selected for further analysis. […] This cell line was used for all molecular pharmacology experiments. […] All molecular pharmacology experiments were carried out using a FLIPR Tetra from Molecular Devices (Sunnyvale, CA), set to image calcium flux using the manufacturer's recommended settings and protocols. […] The cells were recovered overnight in growth medium (as above). The next day, the growth medium was replaced with Calcium 6 dye (Molecular Devices) using the manufacturer recommended buffer with 2.5 mM probenecid. […] The resulting calcium flux was recorded, and the maximum-minimum response over the entire observation time calculated and reported as the mean±SEM (4 wells per point). For antagonist mode experiments, a concentration curve (variable concentration mode) or fixed amount (fixed concentration mode) of antagonist was added to the cells, and allowed to equilibrate for 2 minutes. […] The resulting data was analyzed using a Gaddum/Schild EC50 shift model, (Schild, 1957, Gaddum, 1957) designed to analyze competitive antagonism. (Lazareno and Birdsall, 1993) The data output was the pA2 (nM) and the Schild Slope, a measure of how closely the experimental data fits the operational model of competitive antagonism (Prism). For all analyses, each independent experiment performed in quadruplicate is considered to be a sample size of 1. The pharmacology values are calculated separately from each experiment, then combined and reported as the mean±SEM for the entire set of experiments.

[4] = system: 6-OHDA hemi-parkinsonian rat model; assay: mild (25%) 6-OHDA hemi-parkinsonian rat model (study 1); assay type: in vivo
Description: The classical mild progressive 6-OHDA hemi-parkinsonian rat model was used to assess the neuroprotective potential of 2LS98Lac (FIGS. 9A,B). Briefly, the rats were given unilateral lesions by treatment with 6-OHDA. Then, the rats were challenged with a dopaminergic receptor agonist (amphetamine in our case) and assessed for their turning behavior (Kelly et al., 1975; Torres and Dunnet, 2007; DaCunha et al., 2008) The observed rotational behavior is likely due to the denervation of dopaminergic neurons and subsequent hypersensitivity of the dopaminergic receptors in the lesioned area of the brain. In the first experiment, mild lesions (25%) were induced (FIG. 9A) to simulate the early stages of PD, and amphetamine was used to induce […] rotations. Rats were treated with either vehicle or 2LS98Lac (15 mg/kg, i.p.) 6 h prior to lesioning and 24 h post-lesion. […] Following behavioral analysis, the number of tyrosine hydroxylase (TH)-positive neurons in the SNpc of both vehicle-treated and 2LS98Lac-treated animals was determined using immunohistochemical staining and unbiased stereology. […] Both behavioral and histological data obtained from these experiments indicate that 2LS98Lac successfully elicited neuroprotection.

[5] = system: 6-OHDA hemi-parkinsonian rat model; assay: moderate (40%) 6-OHDA hemi-parkinsonian rat model (study 2); assay type: in vivo
Description: In a follow-up study, the neuroprotective potential of 2LS98Lac was also probed in rats with more severe (40%) 6-OHDA-induced lesions and three treatment-injections with 2LS98Lac (FIG. 9B).
Specifically, 6-OHDA did lead to reduction of % area IBA-1/cell (F3-24=4.463, p=0.0140; FIG. 9K), process length/cell (F3-24=5.925, p=0.0057; FIG. 9L), branches/cell (F3-24=5.845, p=0.0042; FIG. 9M), and endpoints/cell (F3-24=2.943, p=0.0286; FIG. 9N) on the lesioned side. Treatment with 2LS98Lac did lead to an increase of the parameters on the lesioned side back to levels on the intact side. […] Example images for the nigral IHC for TH and for IBA-1, as well as the semi-quantitative western analyses of striatal TH and beta-actin are presented in FIGS. 10A-D.

[6] = stability in mouse serum at 37° C. (FI-MSn); assay type: in vitro ADME; settings: mouse serum at 37° C.
Description: Chemical stability of the glycopeptides in vivo plays an important role in the deliverability of the drugs to the site(s) of action within the brain. It is also important to know what the chemical or metabolic instabilities are in order to inform the drug design process. […] Data were fitted using a single exponential decay model (R^2>0.71, in all cases).
The overall process was as follows: Flow-injection tandem mass spectrometry (FI-MS^n) was used to observe the degradation of the peptides and glycopeptides with a Thermo LCQ with electrospray ionization (ESI). The technique involved injection of a sample bolus of material in mouse serum via a six port valve with fluid flow delivered via a syringe pump, and subsequent electrospray ionization (ESI) followed by mass spectral analysis. Samples were diluted to a concentration of ˜5 μM of each PACAP analogue, and were incubated at 37° C. for times varying from 1 to 60 minutes. After samples had been incubated for the prescribed amount of time they were prepared for mass spectrometry analysis by withdrawing 10 microliters of solution and spiking with 1 microliter of a 10 μM solution of peptide internal standard (angiotensin II) in 50% acetic acid and subjecting them to a standard C18 zip tip desalting. These solutions, once eluted from the zip tip were diluted to 100 μL in 50:50 acetonitrile/water with 0.1% formic acid. Tandem mass spectrometry analysis (MS^3) was conducted to yield specific, quantitative signals proportional to the amount of PACAP analogue at each time point. This technique was also used with microdiasylate samples from a mouse after i.p. administration of PACAP1-27-S-G.

PC12 cells = assay: PC12 cell morphology / neurite outgrowth; assay type: cell-based; settings: 100 nM
Method: PC12 cells are non-adherent cells, and in spite of using the poly-D-Lysine coated plates, the majority of the cells remained suspended. During the media exchange many of the cells were removed with the spent media. The remaining cells could be visually evaluated for qualitative morphological changes at the end of the treatment period, but meaningful cell quantification could not be done reliably using this approach.
FIGS. 5A-5D show PC12 Cell Morphology after Vehicle vs PACAP Treatment (100 nM). […] In all cases the process outgrowths on the treated cells were greater than 2× the cell body width
The PC12 cells were cultured in RPMI containing 5% heat inactivated fetal bovine serum and 10% horse serum in the presence of 100 units/mL penicillin and 100 microgram/mL streptomycin. The cells were plated on poly-D-Lysine coated 6-well tissue culture plates at a density of 150,000 cells per well in 2 mL media. After 48 hours at 37° C. in 5% CO2 atmosphere, media exchange was performed and plates were dosed, using the peptide diluent (water) for the control samples. […] Cell images of each treatment group were captured and compared to the control cells to screen for differentiation and cell body volume increases. Cells having neurite-like process outgrowth were noted and photographed. The neurite-like outgrowth was deemed positive if its length was at least two times the width of the cell body.

[7] = lesioned side, treatment vs vehicle
[8] = three treatment-injections, vs vehicle
[9] = treatment vs vehicle, listed as 2LS98lac

Compound: 2LS98Lac: PACAP glycopeptide; 2LS98 = HSDGIFTDSYSRYRKQLAVKKYLAAVL-Ser-CONH2 (SEQ ID NO: 7), lactose (HSDGIFTDSYSRYRKQLAVKKYLAAVLS; not fully specified; lactose glycosylation, C-terminal amide) [Compound 2LS98Lac]
- cumulative amphetamine-induced contralateral rotations ([4]; 15 mg/kg i.p. 6 h prior and 24 h post-lesion, vs vehicle): significantly decreased; also recorded: reduces 6-OHDA-induced lesion damage
- TH-positive neurons in the SNpc, lesioned vs intact side ([4]; 15 mg/kg i.p., mild lesion): neuronal cell death was attenuated
- 6-OHDA-induced change in microglia morphologic phenotype ([5]; lesioned side): fully reversed
- % area IBA-1/cell [5, 7]: significant increase
- branches/cell [5, 7]: significant increase
- endpoints/cell [5, 7]: trend toward increase
- process length/cell [5, 7]: significant increase
- 6-OHDA-induced change in microglia morphologic phenotype ([5]; lesioned side, listed as 2LS98lac): rescues 6-OHDA induced morphological changes to microglia
- nigral TH-cell count on the lesioned side ([5]; moderate lesion): 9,244 cells
- mean increase of nigral TH-cell count on the lesioned side vs vehicle group ([5]; not significant (p=0.2208)): 850 cells
- amphetamine-induced rotations at 2 weeks post-lesion [5, 8]: did not see a difference; also recorded: does not reduce 6-OHDA-induced lesion damage
- amphetamine-induced rotations at 4 weeks post-lesion [5, 8]: did not see a difference; also recorded: does not reduce 6-OHDA-induced lesion damage
- striatal DA content ([5]; treatment vs vehicle): no significant difference
- striatal TH (western analysis) ([5]; treatment vs vehicle): no significant difference
- striatal DA content [5, 9]: did not change
- striatal TH (western analysis) [5, 9]: did not change

Compound: PACAP1-27-S-L: the corresponding lactoside of PACAP1-27 (HSDGIFTDSYSRYRKQMAVKKYLAAVLS; not fully specified)
- degradation in mouse serum [6]: degraded over 30 min
- cell body volumes (PC12 cells): showed increases

The next lines start with results.

- half-life [1]: > 1 h
Compound: CC[C@H](C)[C@H](NC(=O)CNC(=O)[C@H](CC(=O)O)NC(=O)[C@H](CO)NC(=O)[C@@H](N)Cc1c[nH]cn1)C(=O)N[C@@H](Cc1ccccc1)C(=O)N[C@H](C(=O)N[C@@H](CC(=O)O)C(=O)N[C@@H](CO)C(=O)N[C@@H](Cc1ccc(O)cc1)C(=O)N[C@@H](CO)C(=O)N[C@@H](CCCNC(=N)N)C(=O)N[C@@H](Cc1ccc(O)cc1)C(=O)N[C@@H](CCCNC(=N)N)C(=O)N[C@@H](CCCCN)C(=O)N[C@@H](CCC(N)=O)C(=O)N[C@@H](CC(C)C)C(=O)N[C@@H](C)C(=O)N[C@H](C(=O)N[C@@H](CCCCN)C(=O)N[C@@H](CCCCN)C(=O)N[C@@H](Cc1ccc(O)cc1)C(=O)N[C@@H](CC(C)C)C(=O)N[C@@H](C)C(=O)N[C@@H](C)C(=O)N[C@H](C(=O)N[C@@H](CC(C)C)C(=O)N[C@@H](CO[C@@H]1O[C@H](CO)[C@@H](O[C@@H]2O[C@H](CO)[C@H](O)[C@H](O)[C@H]2O)[C@H](O)[C@H]1O)C(N)=O)C(C)C)C(C)C)[C@@H](C)O [Compound 2LS80Lac]

- antagonist activity, variable concentration mode (PAC1 [3]; versus 5 nM PACAP1-27, concentration up to 1 μM): no significant antagonist activity
Compound: PACAP6-27: truncated putative antagonist (FTDSYSRYRKQMAVKKYLAAVL; ends and bridges not checked)
- Ki (PAC1 [2]): 60 nM
- shift of PACAP1-27 agonist curves, fixed concentration mode (PAC1 [3]; fixed antagonist concentrations up to 1 μM): no detectable shifts in the agonist curves; also recorded: caused no shift in the agonist curves

- Kb (PAC1 [3]; Gaddum/Schild EC50 shift model, read-out: pA2 (converted)): 201 ± 55.4 nM
- IC50 (PAC1 [3]; read-out: antagonism potency (IC50), variable concentration mode): > 333 nM
Compound: CSCC[C@H](NC(=O)[C@H](CCC(N)=O)NC(=O)[C@H](CCCCN)NC(=O)[C@H](CCCNC(=N)N)NC(=O)[C@H](Cc1ccc(O)cc1)NC(=O)[C@H](CCCNC(=N)N)NC(=O)[C@H](CO)NC(=O)[C@H](Cc1ccc(O)cc1)NC(=O)[C@H](CO)NC(=O)[C@H](CC(=O)O)NC(=O)[C@@H](NC(=O)[C@@H](N)Cc1ccccc1)[C@@H](C)O)C(=O)N[C@@H](C)C(=O)N[C@H](C(=O)N[C@@H](CCCCN)C(=O)N[C@@H](CCCCN)C(=O)N[C@@H](Cc1ccc(O)cc1)C(=O)N[C@@H](CC(C)C)C(=O)N[C@@H](C)C(=O)N[C@@H](C)C(=O)N[C@H](C(=O)N[C@@H](CC(C)C)C(=O)NCC(=O)N[C@@H](CCCCN)C(=O)N[C@@H](CCCNC(=N)N)C(=O)N[C@@H](Cc1ccc(O)cc1)C(=O)N[C@@H](CCCCN)C(=O)N[C@@H](CCC(N)=O)C(=O)N[C@@H](CCCNC(=N)N)C(=O)N[C@H](C(=O)N[C@@H](CCCCN)C(=O)N[C@@H](CC(N)=O)C(=O)N[C@@H](CCCCN)C(N)=O)C(C)C)C(C)C)C(C)C [PACAP6-38]
- Ki (PAC1 [2]): 1.5 nM

— patent publication US20240294595A1, “GLYCOPEPTIDES AND USES THEREOF” (Arizona Board of Regents on Behalf of the University of …, priority 2013, published 2024)
